Measured values published in publication PMC8694143 (Microbiology Spectrum, 2021).
No end group written: not given here.

What was measured:
MRSA ATCC 33592 = assay: MIC determination in broth; format: cell-based, Staphylococcus aureus
Summary of the method: (§1)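 Strains were grown in LB at 37°C, then diluted in cation-adjusted Mueller-Hinton broth to OD 5 × 10^−4 (∼10^5 CFU/mL). Peptides were added in 2-fold dilutions, and plates were incubated without shaking at 37°C.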

MRSA ATCC BAA-1683 = assay: MIC determination in broth; format: cell-based, Staphylococcus aureus; conditions: STIP3 variants, highest conc. tested 100 μg/mL; cation-adjusted MH broth, ~10^5 CFU/mL, 2-fold dilution series, 37°C, 16 h
Summary of the method: as §1

MRSA ATCC BAA-2094 = assay: MIC determination in broth; format: cell-based, Staphylococcus aureus; conditions: STIP3 variants, highest conc. tested 100 μg/mL; cation-adjusted MH broth, ~10^5 CFU/mL, 2-fold dilution series, 37°C, 16 h
Summary of the method: as §1

MRSA ATCC BAA-2313 = assay: MIC determination in broth; format: cell-based, Staphylococcus aureus; conditions: STIP3 variants, highest conc. tested 100 μg/mL; cation-adjusted MH broth, ~10^5 CFU/mL, 2-fold dilution series, 37°C, 16 h
Summary of the method: as §1

MRSA ATCC BAA-41 = assay: MIC determination in broth; format: cell-based, Staphylococcus aureus; conditions: STIP3 variants, highest conc. tested 100 μg/mL; cation-adjusted MH broth, ~10^5 CFU/mL, 2-fold dilution series, 37°C, 16 h
Summary of the method: as §1

MRSA ATCC BAA-42 = assay: MIC determination in broth; format: cell-based, Staphylococcus aureus; conditions: STIP3 variants, highest conc. tested 100 μg/mL; cation-adjusted MH broth, ~10^5 CFU/mL, 2-fold dilution series, 37°C, 16 h
Summary of the method: as §1

MRSA ATCC BAA-44 = assay: MIC determination in broth; format: cell-based, Staphylococcus aureus; conditions: STIP3 variants, highest conc. tested 100 μg/mL; cation-adjusted MH broth, ~10^5 CFU/mL, 2-fold dilution series, 37°C, 16 h
Summary of the method: as §1

S. aureus ATCC 29213 = assay: MIC determination in broth; format: cell-based, Staphylococcus aureus; conditions: STIP3 variants, highest conc. tested 100 μg/mL; cation-adjusted MH broth, ~10^5 CFU/mL, 2-fold dilution series, 37°C, 16 h
Summary of the method: as §1

M. luteus ATCC 4698 = assay: MIC determination in broth; format: cell-based, Micrococcus luteus
[1] = test system: S. aureus bovid isolate (RDM-1); assay: MIC determination in broth; format: cell-based, Staphylococcus aureus; conditions: clinical isolate, mastitis in a dairy cow; MH broth
Method: (§2) The MICs were measured for bioactive peptides identified from the initial screen. Cation-adjusted Mueller-Hinton (MH) broth was used as the growth medium for MIC determination experiments. Bacterial cultures were diluted to an OD of 5 × 10^−4 (∼10^5 CFU/mL) in 200 μL MH broth mixed with peptides in a 2-fold dilution series arrayed in 96-well plates. Plates were incubated without shaking at 30 or 37°C depending on the organism.

[2] = test system: S. pseudintermedius canine isolate MRSP16; assay: MIC determination in broth; format: cell-based, Staphylococcus pseudintermedius; conditions: MH broth
Method: as §2

[3] = test system: S. pseudintermedius canine isolate MRSP24; assay: MIC determination in broth; format: cell-based, Staphylococcus pseudintermedius; conditions: MH broth
Method: as §2

[4] = test system: S. pseudintermedius canine isolate MSSP42; assay: MIC determination in broth; format: cell-based, Staphylococcus pseudintermedius; conditions: MH broth
Method: as §2

[5] = test system: S. pseudintermedius human isolate SPC001 (MSSP); assay: MIC determination in broth; format: cell-based, Staphylococcus pseudintermedius; conditions: MH broth
Method: as §2

[6] = test system: S. pseudintermedius human isolate SPC002 (MSSP); assay: MIC determination in broth; format: cell-based, Staphylococcus pseudintermedius; conditions: MH broth
Method: as §2

[7] = test system: S. pseudintermedius human isolate SPC020 (MSSR); assay: MIC determination in broth; format: cell-based, Staphylococcus pseudintermedius; conditions: MH broth
Method: as §2

S. auricularis = assay: MIC determination in broth; format: cell-based, Staphylococcus auricularis; conditions: isolate from the healthy quarter of a dairy cow; MH broth
Method: as §2

S. epidermidis = assay: MIC determination in broth; format: cell-based, Staphylococcus epidermidis; conditions: isolate from the healthy quarter of a dairy cow; MH broth
Method: as §2

S. equorum = assay: MIC determination in broth; format: cell-based, Staphylococcus equorum; conditions: isolate from the healthy quarter of a dairy cow; MH broth
Method: as §2

[8] = Circular dichroism spectroscopy; format: physicochemical; conditions: CD, 50% TFE (vol/vol), peptide 0.2 mg/mL, room temperature
Method: Peptides were dissolved in ultrapure water or 50% TFE (vol/vol) at a concentration of 0.2 mg/mL for spectroscopy. Spectra of samples in a 1 mm pathlength quartz cuvette were recorded from 180 to 260 nm at 0.5 nm steps using an Applied Photophysics Chirascan Plus CD spectrophotometer operating at room temperature.

[9] = test system: MRSA ATCC 33592 on 3D EpiDerm skin tissues; assay: Three-dimensional NHEK skin model of MRSA infection; format: cell-based, Staphylococcus aureus; conditions: 25 μg/mL (4× MIC), 100 μL apical, 16 h after 4 h colonization, 37°C, 5% CO2
Method: 3D EpiDerm skin tissues (MatTek EPI-200-AFAB; antifungal and antibiotic-free; 9 mm) contained within a plastic insert lined with a permeable 0.4 μm membrane were transferred to 12-well plates containing antibiotic assay medium (600 μL/well). A fresh MRSA ATCC 33592 culture in the log phase of growth was centrifuged at 10,000 rpm for 5 min to harvest bacterial cells before resuspension in sterile PBS to an […] 5 × 10^6 CFU/mL. Tissues were incubated with 100 μL of the bacterial cell suspension (5 × 10^5 CFU) for 4 h at 37°C in a humidified 5% CO2 environment. After 4 h, the bacterial cell suspension was removed and the apical surface of each tissue was washed 3 times with PBS to remove nonadherent bacterial cells. Next, the colonized skin tissues were treated with a 100 μL volume of STIP3-29 at 25 μg/mL. An equal volume of sterile PBS was used for untreated control experiments. Tissues were then incubated at 37°C in a humidified 5% CO2 environment for 16 h. […] The number of MRSA colonies on each plate was counted and an average CFU/mL was determined for treated and untreated samples. […] The statistical differences in colonization were evaluated using an unpaired two-tailed Student’s t test to compare pretreated (control colonization; CC), untreated control (PBS), and STIP3-29 treated groups.

TVGGLVKWILKTVKKFA-NH2 [STIP3-29]
Improvement to antibiotic activity relative to STIP3-1 (MRSA ATCC 33592; S. aureus ATCC 29213 and MRSA panel MICs): 16 fold
MIC (μg/mL) for MRSA ATCC 33592 (MRSA ATCC 33592; Table 1 and text, cation-adjusted MH broth, ~10^5 CFU/mL, 37°C, 16 h): 6.25 µg/mL
MIC, S. aureus ATCC 33592 (SCCmec III) (MRSA ATCC 33592; Table S5, STIP3 variants, highest conc. tested 100 μg/mL, cation-adjusted MH broth, ~10^5 CFU/mL, 2-fold dilution series, 37°C, 16 h): 6.25 µg/mL
MIC for MRSA, molar (MRSA ATCC 33592; conversion of 6.25 μg/mL): 3.3 µM
MIC, S. aureus ATCC BAA 1683 (SCCmec IV) (MRSA ATCC BAA-1683): 6.25 µg/mL
MIC, S. aureus ATCC BAA 2094 (SCCmec V) (MRSA ATCC BAA-2094): 6.25 µg/mL
MIC, S. aureus ATCC BAA 2313 (SCCmec XI) (MRSA ATCC BAA-2313): 6.25 µg/mL
MIC, S. aureus ATCC BAA 41 (SCCmec II) (MRSA ATCC BAA-41): 6.25 µg/mL
MIC, S. aureus ATCC BAA 42 (SCCmec VI) (MRSA ATCC BAA-42): 6.25 µg/mL
MIC, S. aureus ATCC BAA 44 (SCCmec I) (MRSA ATCC BAA-44): 6.25 µg/mL
MIC, S. aureus ATCC 29213 (S. aureus ATCC 29213): 12.5 µg/mL
MIC, M. luteus (M. luteus ATCC 4698; cation-adjusted MH broth, ~10^5 CFU/mL, 30°C, 48 h): 1.56 µg/mL
MIC, M. luteus, molar (M. luteus ATCC 4698; conversion of 1.56 μg/mL): 0.85 µM
MIC, S. aureus bovid isolate (RDM-1) [1]: 6.25 µg/mL
MIC, S. pseudintermedius MRSP16 [2]: 3.13 µg/mL
MIC, S. pseudintermedius MRSP24 [3]: 3.13 µg/mL
MIC, S. pseudintermedius MSSP42 [4]: 3.13 µg/mL
MIC, S. pseudintermedius SPC001 (MSSP) [5]: 3.13 µg/mL
MIC, S. pseudintermedius SPC002 (MSSP) [6]: 3.13 µg/mL
MIC, S. pseudintermedius SPC020 (MSSR) [7]: 3.13 µg/mL
MIC, S. auricularis (S. auricularis): 1.56 µg/mL
MIC, S. epidermidis (S. epidermidis): 3.13 µg/mL
MIC, S. equorum (S. equorum): 3.13 µg/mL
α-Helical content (%) [8]: 61%
Effect on the MRSA population on colonized NHEK tissue [9]: prevented the expansion of the MRSA population
